Data as given in publication PMC12224939, “Trypstatin as a Novel TMPRSS2 Inhibitor with Broad‐Spectrum Efficacy against Corona and Influenza Viruses” (Advanced Science, 2025).
Counter-ions that a name gives are not always drawn. Like-named read-outs stand apart in the source and are kept apart here. Bridge positions count the residues as written; N and C are the ends. Ends that are not written are not given here.

Key:
[1] = system: lentiviral pseudoparticles harboring the SARS-CoV-2 Hu-1 spike; experiment: microbe, parasite or virus in culture; conditions: Severe acute respiratory syndrome coronavirus 2, Caco-2, 48 h, read-out: IC50, SARS-CoV-2 spike-driven pseudoparticle entry, Caco-2 cells, Hu-1 spike, luciferase 48 h after transduction
[2] = system: SARS-CoV-2 B.1 D614G; conditions: read-out: anti-viral IC50 (±SEM), SARS-CoV-2 B.1
[3] = system: lentiviral pseudoparticles harboring the SARS-CoV-2 Hu-1 spike
[4] = read-out: IC50, SARS-CoV-2 spike-driven pseudoparticle entry, Caco-2 cells, luciferase 48 h after transduction

Molecule: CN(C)C(=O)COC(=O)Cc1ccc(OC(=O)c2ccc(NC(=N)N)cc2)cc1 [Camostat mesylate]
- IC50 [1]: 0.0938 ± 0.006 µM
- IC50 [2]: 0.0041 ± 0.002 µM

Molecule: N=C(N)c1ccc2cc(OC(=O)c3ccc(N=C(N)N)cc3)ccc2c1 [Nafamostat mesylate]
- IC50 [1]: 0.0144 ± 0.001 µM

Molecule: CC(=O)NCC(=O)N[C@@H](CCC(N)=O)C(=O)N[C@@H](Cc1ccccc1)C(=O)N[C@@H](CCCN=C(N)N)C(=O)c1nc2ccccc2s1 [MM3122, reference compound]
- IC50 [3, 4]: 0.0312 ± 0.003 µM

Molecule: Aprotinin
- IC50 [3, 4]: 0.427 ± 0.03 µM

Molecule: Antitrypsin
- IC50 ([3]; read-out: IC50, SARS-CoV-2 spike-driven pseudoparticle entry, Caco-2 cells, luciferase 48 h after transduction, listed as α‐1‐antitrypsin): 27.4 ± 4.1 µM

Molecule: CNLPIVRGPCRAFIQLWAFDAVKGKCVLFPYGGCQGNGNKFYSEKECREYC (disulfide 1-51, 10-34, 26-47) [Bikunin KD 2]
- IC50 [3, 4]: 0.17 ± 0.02 µM

B1: Bikunin (protein, UniProt P02760 206-352, looked up)
Inter-alpha-trypsin inhibitor …: AVLPQEEEGSGGGQLVTEVTKKEDSCQLGYSAGPCMGMTSRYFYNGTSMACETFQYGGCMGNGNNFVTEKECLQTCRTVAACNLPIVRGPCRAFIQLWAFDAVKGKCVLFPYGGCQGNGNKFYSEKECREYCGVPGDGDEELLRFSN
modifications: Inter-alpha-trypsin inhibitor light chain
- IC50 [3, 4]: 6.1 ± 1.2 µM
